Patent US10144746B2 (GLOBAL BLOOD THERAPEUTICS, INC., priority 2015, dated 2018)

Target: Human plasma kallikrein (Homo sapiens (Human), UniProt P03952)
Assay: In vitro plasma kallikrein inhibition assay (chromogenic substrate D-Pro-Phe-Arg-pNa, absorbance at 405 nm, IC50 determination)
Type: biochemical
Settings: not given

Sequence of Human plasma kallikrein (P03952 391-638): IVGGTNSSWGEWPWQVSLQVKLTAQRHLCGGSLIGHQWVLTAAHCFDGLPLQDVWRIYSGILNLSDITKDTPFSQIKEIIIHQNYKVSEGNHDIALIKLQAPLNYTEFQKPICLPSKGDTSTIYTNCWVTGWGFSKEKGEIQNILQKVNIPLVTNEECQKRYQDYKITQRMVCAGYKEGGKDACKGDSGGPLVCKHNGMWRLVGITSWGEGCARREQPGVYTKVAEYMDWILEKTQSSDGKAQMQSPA
Sequence of Human plasma kallikrein (P03952 20-390 partner): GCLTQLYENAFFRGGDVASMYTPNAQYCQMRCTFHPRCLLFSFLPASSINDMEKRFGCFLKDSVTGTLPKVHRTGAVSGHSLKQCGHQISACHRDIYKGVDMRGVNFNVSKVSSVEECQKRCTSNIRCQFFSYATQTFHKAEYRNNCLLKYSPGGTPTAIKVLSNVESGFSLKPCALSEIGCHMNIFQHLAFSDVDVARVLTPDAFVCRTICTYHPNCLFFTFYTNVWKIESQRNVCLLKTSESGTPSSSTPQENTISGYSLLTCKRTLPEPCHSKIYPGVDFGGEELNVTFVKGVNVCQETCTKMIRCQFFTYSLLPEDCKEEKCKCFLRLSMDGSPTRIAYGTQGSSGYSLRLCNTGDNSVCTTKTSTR

SMILES | KLKB1 pIC50
Cc1cc(N)nc(C)c1CNC(=O)c1ccc2c(c1)C1OC2c2c(C)cc(-c3ccc(F)cc3)cc21 (racemic) [Example 340, (±)-N-[(6-amino-2,4-dimethyl-pyridin-3-yl)methyl]-12-(4-fluorophenyl)-10-methyl-15-oxatetracyclo[6.6.1.0^2,^7.0^9,1^4] pentadeca-2,4,6,9(14),10,12-hexaene-4-carboxamide and (±)-N-[(6-amino-2,4-dimethylpyridin-3-yl)methyl]-11-(4-fluorophenyl)-13-methyl-15-oxatetracyclo [6.6.1.0^2,^7.0^9,1^4]pentadeca-2,4,6,9(14),10,12-hexaene-4-carboxamide] | 6.64
NC(=NO)c1ccc(CNC(=O)c2ccc3c(c2)[C@@H]2O[C@H]3c3ccc(-c4ccc(Cl)s4)cc32)cc1 [Example 276, (1S,8R)-12-(5-chlorothiophen-2-yl)-N-{[4-(N′-hydroxycarbamimidoyl)phenyl]methyl}-15-oxatetracyclo[6.6.1.0^2,^7.0^9,1^4] pentadeca-2,4,6,9,11,13-hexaene-4-carboxamide] | 4

Same assay, conditions: read-out: KLKB1 pIC50 (converted)

SMILES | IC50
Cc1cc(N)nc(C)c1CNC(=O)c1ccc2c(c1)C1OC2c2ccc(C(=O)c3ccccc3)cc21 (racemic) [Example 188, (±)-N-[(6-amino-2,4-dimethylpyridin-3-yl)methyl]-12-benzoyl-15-oxatetracyclo-[6.6.1.0^2,^7.0^9,1^4]pentadeca-2,4,6,9,11,13-hexaene-4-carboxamide] | 10 nM
N=C(N)c1ccc(CNC(=O)c2ccc3c(c2)[C@@H]2O[C@H]3c3ccc(N4CCCC4)cc32)cc1 (single isomer, unassigned) [Example 236] | 2 nM
CCc1ccc2c(c1)[C@H]1O[C@@H]2c2ccc(C(=O)NCc3ccc(C(=N)N)cc3)cc21 (single isomer, unassigned) [Example 233] | 7.08 nM
O=C(NCC1CNC1)c1ccc2c(c1)[C@@H]1O[C@H]2c2ccc(-c3ccc(F)cc3F)cc21 (single isomer, unassigned) [Example 323] | 100000 nM
CCCc1cc(N)nc(C)c1CNC(=O)c1ccc2c(c1)C1OC2c2ccc(-c3ccc(F)cc3F)cc21 (racemic) [Example 172, (±)-N-[(6-amino-2-methyl-4-propylpyridin-3-yl)methyl]-12 (2,4-difluorophenyl)-15-oxatetracyclo[6.6.1.0^2,^7.0^9,1^4] pentadeca-2,4,6,9,11,13-hexaene-4-carboxamide] | 10 nM
Cc1cc(N)nc(C)c1CNC(=O)c1cc(F)c2c(c1)C1OC2c2c(C)cc(-c3ccc(F)cc3)cc21 (racemic) [Example 397, (±)-N-(6-amino-2,4-dimethylpyridin-3-yl) methyl]-6-fluoro-12-(4-fluorophenyl)-10-methyl-15-oxatetracyclo[6.6.1.0^2,^7.0^9,1^4] pentadeca-2(7),3,5,9(14),10,12-hexaene-4-carboxamide] | 20 nM
Cc1cc(N)nc(C)c1CNC(=O)c1ccc2c(c1)C1OC2c2ccc(-c3cccc(S(C)(=O)=O)c3)cc21 (racemic) [Example 128, (±)-N-[(6-amino-2,4-dimethylpyridin-3-yl)-methyl]-12-(3-methanesulfonylphenyl)-15-oxatetracyclo[6.6.1.0^2,^7.0^9,1^4] pentadeca-2,4,6,9,11,13 hexaene-4-carboxamide] | 933 nM
Cc1cc2c(cc1C)C1OC2c2ccc(C(=O)NCc3c(C)cc(N)nc3C)cc21 (racemic) [Example 308, (±)-N-[(6-amino-2,4-dimethyl-pyridin-3-yl)methyl]-11,12-dimethyl-15-oxatetracyclo [6.6.1.0^2,^7.0^9,1^4]pentadeca-2,4,6,9(14),10,12-hexaene-4-carboxamide] | 224 nM
O=C(NCc1ccc(-c2noc(=O)[nH]2)cc1)c1ccc2c(c1)[C@@H]1O[C@H]2c2ccc(-c3ccc(F)cc3F)cc21 (single isomer, unassigned) [Example 270] | 100000 nM
N=C(N)c1cc(F)c(CNC(=O)c2ccc3c(c2)[C@@H]2O[C@H]3c3ccc(-c4ccc(F)cc4F)cc32)c(F)c1 (single isomer, unassigned) [Example 256] | 0.759 nM
Cc1nc(N)cc(C(C)C)c1CNC(=O)c1ccc2c(c1)[C@@H]1O[C@H]2c2ccc(-c3ccc(F)cc3F)cc21 (single isomer, unassigned) [Example 208] | 1 nM
Cc1cc(-c2ccc(F)cc2)cc2c1C1OC2c2cc(C(=O)NCc3ccc(C(=N)N)cc3)cc(F)c21 (racemic) [Example 396, (±)-N-[(4-carbamimidoylphenyl)methyl]-6-fluoro-12-(4-fluorophenyl)-10-methyl-15-oxatetracyclo[6.6.1.0^2,^7.0^9,1^4] pentadeca-2(7),3,5,9(14),10,12-hexaene-4-carboxamide] | 5.01 nM
Cc1cc2c(c(C)c1CNC(=O)c1ccc3c(c1)C1OC3c3ccc(-c4ccc(F)cc4F)cc31)CNC2 (racemic) | 316 nM
Cc1cc(N)nc(C)c1CNC(=O)c1ccc2c(c1)C1OC2c2ccc(-c3ccc(F)cc3C#N)cc21 (racemic) [Example 69] | 6.31 nM
Nc1ncc(CNC(=O)c2ccc3c(c2)C2OC3c3ccc(-c4ccc(F)cc4F)cc32)c2ccccc12 (racemic) [Example 155, (±)-N-[(1-aminoisoquinolin-4-yl)methyl]-12-(2,4-difluorophenyl)-15-oxatetracyclo [6.6.1.0^2,^7.0^9,1^4]-pentadeca-2,4,6,9,11,13-hexaene-4-carboxamide] | 4070 nM
Cc1cc(N)nc(C)c1CNC(=O)c1ccc2c(c1)C1OC2c2ccc(Oc3cccnc3)cc21 (racemic) [Example 144, (±)-N-[(6-amino-2,4-dimethylpyridin-3-yl)methyl]-12-(pyridin-3-yloxy)-15-oxatetracyclo[6.6.1.0^2,^7.0^9,1^4] pentadeca-2,4,6,9,11,13-hexaene-4-carboxamide] | 6310 nM
Cc1cc(N)nc(C)c1CNC(=O)c1ccc2c(c1)[C@@H]1O[C@H]2c2ccc(-c3ccc(F)c[n+]3[O-])cc21 (single isomer, unassigned) [Example 214] | 83.2 nM
N=C(N)c1ccc(CNC(=O)c2ccc3c(c2)[C@@H]2O[C@H]3c3ccc(N4CC5CCC(C4)O5)cc32)cc1 (single isomer, unassigned) [Example 232] | 38.9 nM
N=C(N)c1ccc(CNC(=O)c2ccc3c(c2)[C@@H]2O[C@H]3c3ccc(-c4ccccc4F)cc32)c(F)c1 (single isomer, unassigned) [Example 290] | 1 nM
CC(C)c1ccc2c(c1)[C@H]1O[C@@H]2c2ccc(C(=O)NCc3ccc(C(=N)N)cc3)cc21 (single isomer, unassigned) [Example 328] | 7.08 nM
C=C(C)c1cc(N)nc(C)c1CNC(=O)c1ccc2c(c1)[C@@H]1O[C@H]2c2ccc(-c3ccc(F)cc3F)cc21 (single isomer, unassigned) [Example 227] | 12 nM
Nc1nccc2cc(Cl)c(CNC(=O)c3ccc4c(c3)[C@@H]3O[C@H]4c4ccc(-c5ccccc5F)cc43)cc12 (single isomer, unassigned) [Example 295] | 10000 nM
Cc1cc(N)nc(C)c1CNC(=O)c1ccc2c(c1)C1OC2c2ccc(-c3ccc4[nH]cnc4c3)cc21 (racemic) [Example 123, (±)-N-[(6-amino-2,4-dimethylpyridin-3-yl)-methyl]-12-(1H-1,3-benzodiazol-5-yl)-15-oxatetracyclo[6.6.1.0^2,^7.0^9,1^4] pentadeca-2,4,6,9,11,13-hexaene-4-carboxamide] | 282 nM
